Assay in all cases: NCI-60 cell line screen, 48 h
The subject of experiment [1] is A498 renal.
The subject of experiment [2] is EKVX NSCLC.
Experiment [3] deals with HCT-116 colon.
In experiment [4] the test system is RXF 393 renal.
In experiment [5] the test system is SF-268 CNS.
Experiment [6] deals with SNB-19 CNS.
For experiment [7], the system named is SNB-75 CNS.
The test system of experiment [8] is UACC-62 melanoma.
Experiment [9] relates to OVCAR-5 ovarian.

Molecules are shown by their SMILES.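 Method: 48-hour compound exposure of cells in 96-well plates, five concentrations, linear interpolation of endpoints. TGI: concentration producing complete growth inhibition.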 Bounds are passed on as bounds.

In the case of `CNC(=S)/N=C(\N)N(C)C`, the TGI in [1], in experiment [2], in [3], in experiment [4], in [5] and in experiment [6] was greater than 100 µM throughout. Besides, the TGI in experiment [7] and in experiment [8] was greater than 100 µM in each case.
In the case of `O=C1c2ccccc2C(=O)C1(O)c1c[nH]c2ccccc12`, the TGI in experiment [2], in [3], in [9], in experiment [5], in experiment [6] and in [7] was greater than 100 µM throughout. In experiment [8], the TGI is greater than 100 µM.
`COc1cc2[nH]c3c(c2cc1OC)CCN[C@]31CC[C@]2(CC3c4c(cc(OC)c(O)c42)CCN3C)C[C@H]1OC` (stereo partly specified): the TGI is 70.9 µM in experiment [1]; greater than 100 µM in experiment [2]; 31.6 µM in experiment [3]; greater than 100 µM in [9]; 18.6 µM in [4]; 68.2 µM in experiment [5]. Moreover, the TGI is greater than 100 µM in experiment [6], 45.5 µM in experiment [7] and 49 µM in experiment [8].
Turning to `Cc1[nH]c(=O)nc2[nH][nH]c(=O)c12`, the TGI in [2], in experiment [3], in experiment [9], in experiment [4], in [5] and in experiment [8] was greater than 100 µM in each case.
As to `O=C(O)CNS(=O)(=O)c1ccc(NC(=O)c2ccc([N+](=O)[O-])cc2)cc1`, the TGI in experiment [1], in experiment [2], in experiment [9], in experiment [4], in [5] and in [6] was greater than 100 µM throughout. The TGI in experiment [7] and in experiment [8] was greater than 100 µM throughout.
With `O=C(c1cccc2ccccc12)N1CCC(C2CCN(C(=O)c3cccc4ccccc34)CC2)CC1`, the TGI in [1], in experiment [2], in experiment [3], in experiment [9], in experiment [4] and in [5] was greater than 100 µM in each case. The TGI in experiment [7] is 65.7 µM; in experiment [8], greater than 100 µM.
With `CCCN(CCC)C(=O)c1c([N+](=O)[O-])cc(C(F)(F)F)cc1[N+](=O)[O-]`, the TGI was greater than 100 µM in experiment [1]; greater than 100 µM in experiment [2]; 87.4 µM in [3]; greater than 100 µM in experiment [9]; 79.7 µM in [4]; greater than 100 µM in experiment [5]. The TGI in experiment [6] is greater than 100 µM; in experiment [7] it was greater than 100 µM; in experiment [8], 50.1 µM.
`Cc1nnc(NS(=O)(=O)c2ccc(N=Nc3cc(N=Nc4ccc(S(=O)(=O)Nc5nnc(C)s5)cc4)c4c(NC(=O)C(Cl)Cl)cccc4c3OC(=O)C(Cl)Cl)cc2)s1` (tested in a mixture with another compound): the TGI in experiment [1] is greater than 100 µM; in experiment [2], 89.2 µM; in experiment [3] it was 41.7 µM; in experiment [9] it was 55.5 µM; in experiment [4], 55.9 µM; in [5], greater than 100 µM. Also, the TGI in experiment [6] is greater than 100 µM; in [7] it was 82 µM; in [8], 89.1 µM.
Consider `O=C(/C=C/c1ccc(Cl)c(Cl)c1)c1ccc2ccccc2c1`, for which the TGI in [1], in [2], in experiment [3], in [9], in [4] and in experiment [5] was greater than 100 µM in each case. Further, the TGI in experiment [6], in experiment [7] and in experiment [8] was greater than 100 µM throughout.
Regarding `[N-]=[N+]=C1C(=O)NN=C1c1ccccc1`, the TGI in experiment [2], in experiment [3], in experiment [9], in experiment [4], in experiment [5] and in experiment [7] was greater than 100 µM each time.
As for `CN(Cc1ccccc1)C(=O)c1ccccc1C(=O)O`, the TGI in experiment [2], in [3], in experiment [9], in [4], in experiment [5] and in experiment [6] was greater than 100 µM throughout. The compound further gave a TGI in experiment [7] greater than 100 µM.
As to `CCOC(=O)C(=O)Nc1ccccc1CC`, the TGI in experiment [2], in experiment [3], in experiment [9], in experiment [4], in experiment [5] and in experiment [6] was greater than 100 µM throughout. This compound displayed a TGI in [8] greater than 100 µM.
With `CCCC1=C(CC)C(C(=O)Nc2c(C)cccc2C)=NC(S)N1` (stereo unspecified), the TGI in experiment [1], in experiment [2], in [3], in experiment [9], in experiment [5] and in experiment [6] was greater than 100 µM each time. Also, the TGI in experiment [7] and in experiment [8] was greater than 100 µM each time.
On to `CCOC(=O)N[C@@H]1C(CC(=O)OC)O[C@H]2OC(C)(C)O[C@H]21` (stereo partly specified), for which the TGI in [1], in experiment [9], in experiment [4], in [5], in experiment [7] and in experiment [8] was greater than 100 µM throughout.
`COC(=O)C12CC3CC(CC(C(=O)O)(C3)C1)C2`: the TGI in experiment [1], in experiment [2], in [3], in experiment [9], in experiment [5] and in experiment [6] was greater than 100 µM each time. Also, the TGI in [7] and in experiment [8] was greater than 100 µM in each case.
As for `COc1ccc2c3c([nH]c2c1[N+](=O)[O-])C(C)N(C)CC3` (stereo unspecified), the TGI in experiment [1], in experiment [2], in [3], in experiment [9], in [6] and in experiment [7] was greater than 100 µM in each case. In experiment [8], this compound gave a TGI greater than 100 µM.
For the compound `CCCCNC1CCCCC[C@H]1O` (stereo partly specified), the TGI in experiment [2], in [3], in [9], in experiment [4], in [5] and in experiment [6] was greater than 100 µM each time. In addition, the TGI in [7] and in experiment [8] was greater than 100 µM in each case.
Turning to `C=C(C)CCN[Si](c1ccccc1)(c1ccccc1)C(C)(C)C`, the TGI in experiment [1] is greater than 100 µM; in experiment [2], 54.4 µM; in [3] it was 27.7 µM; in experiment [4], 32.4 µM; in experiment [5], 98 µM; in [6], 49.2 µM. The figures for the TGI in experiment [7] and in experiment [8] were 82.2 µM and 31.9 µM, respectively.
As for `COc1cc(/C=C/c2ccc(OC)c(O)c2)cc(OC)c1`, the TGI in experiment [1] was greater than 100 µM; in experiment [2] it was 90 µM; in [3], 12.3 µM; in experiment [9], 89.1 µM; in experiment [4], 3.88 µM; in experiment [5], 80.5 µM. For the same compound, the TGI in experiment [6] was 24.1 µM; in [8] it was 15.1 µM.
Turning to `COC(=O)[C@@]12C(=O)C=CC(=O)C1C1C(=CC2C)OC2OC3(CCCCC3)OC21` (stereo partly specified), the TGI turned out to be 32.2 µM in [1]; 37.8 µM in [2]; 29.8 µM in experiment [3]; 27.8 µM in experiment [9]; 48.6 µM in [5]; 31.9 µM in experiment [6]. The TGI in experiment [7] was found to be 33.2 µM; in [8], 29 µM.
On to `Nc1ccccc1/C(O)=C1/CCOC1=O`, for which the TGI in [1], in experiment [2], in experiment [3], in experiment [9], in experiment [5] and in experiment [6] was greater than 100 µM throughout. In addition, the TGI in experiment [7] and in experiment [8] was greater than 100 µM each time.
Turning to `COc1ccc(CN2CC(C)(C)C2=O)c(OC)c1`, the TGI in experiment [1], in experiment [2], in experiment [3], in experiment [4], in experiment [5] and in experiment [6] was greater than 100 µM in each case. Moreover, the TGI in experiment [7] and in [8] was greater than 100 µM throughout.
Turning to `c1cnn(CN(Cn2cccn2)Cn2cccn2)c1`, the TGI in experiment [1], in experiment [2], in [3], in experiment [4], in [5] and in experiment [6] was greater than 100 µM in each case. Moreover, the TGI in [7] and in [8] was greater than 100 µM each time.
On to `CCOC(=O)C1SC(=Nc2ccc(C)c(C)c2)N=C1C` (stereo unspecified), for which the TGI in experiment [1], in experiment [2], in [9], in experiment [5], in experiment [6] and in [7] was greater than 100 µM each time. This compound also showed a TGI in experiment [8] greater than 100 µM.
On to `O=C(N/N=C/c1cc(Br)ccc1O)N/N=C/c1cc(Br)ccc1O`, for which the TGI in experiment [1], in experiment [2], in experiment [9], in [4], in [5] and in experiment [6] was greater than 100 µM each time.

Source of the values: PubChem BioAssay (NCI).
